From US9125388B2, “Biological control” (Isis Innovation Limited, priority 1999, dated 2015)

Columns and labels:
[1] = tested on: (Female) Sxlp^e tTa^(A) × tRe lacZ^(III) (Male); assay: Reporter crosses at 25° C., embryos stained for lacZ; assay type: in vivo, Drosophila melanogaster
Text: As with “single chromosome crosses”, ten to fifteen virgin females homozygous for the tTA construct and five to ten young males homozygous for the tRe construct were placed on food containing or lacking a tetracycline supplement.

[2] = tested on: Hsp26 tTa^(A) × tRe Msl-2^Nopu(A, B,); assay: Single chromosome crosses at 25° C., adult progeny by sex
[3] = tested on: Stwl tTa^(A, B, C) × tRe Ras64B^V12(B, C); assay: as above; assay type: in vivo, Drosophila melanogaster
Description: (§1) In “single chromosome crosses” at 25° C., ten to fifteen virgin females homozygous for the tTA construct and five to ten young males homozygous for the tRe construct were placed on food containing or lacking a tetracycline supplement.

[4] = tested on: Actin5C tTa^(B, C, E) × tRe Msl-1^MPu(A, B); assay: as above; assay type: in vivo, Drosophila melanogaster
Description: as §1

[5] = tested on: Actin5C tTa^(B, C, E) × tRe Msl-2^Nopu (B, C, D); assay: as above; assay type: in vivo, Drosophila melanogaster
Description: as §1

[6] = tested on: Sxlpe tTa^(A, B, C, F) × tRe Msl-2^Nopu(B, C, D); assay: as above; assay type: in vivo, Drosophila melanogaster
Description: as §1

[7] = tested on: Stwl tTa^(A, B, C) × tRe Msl-2^Nopu(B, C, D); assay: as above; assay type: in vivo, Drosophila melanogaster
Description: as §1

[8] = tested on: Hsp26 tTa^(A) × tRe Ras64B^V12(B, C,); assay: as above; assay type: in vivo, Drosophila melanogaster
Description: as §1

[9] = tested on: Sxlpe tTa^(A, B, C, F) × tRe Msl-1^Mpu(A, B); assay: as above; assay type: in vivo, Drosophila melanogaster
Description: as §1

[10] = tested on: Actin5C tTa^(B, C, E) × tRe Ras64B^V12(B, C); assay: as above; assay type: in vivo, Drosophila melanogaster
Description: as §1

[11] = tested on: Yp3 tTa^(A) × tRe Msl-2^Nopu(A, B,); assay: as above; assay type: in vivo, Drosophila melanogaster
Description: as §1

[12] = tested on: Sxlpe tTa^(A, B, C, F) × tRe Ras64B^V12(B, C); assay: as above; assay type: in vivo, Drosophila melanogaster
Description: as §1

[13] = tested on: Yp3 tTa^(A) × tRe Msl-1^Mpu(A, B,); assay: as above; assay type: in vivo, Drosophila melanogaster
Description: as §1

[14] = tested on: Yp3 tTa^(A) × tRe Ras64B^V12(B, C,); assay: as above; assay type: in vivo, Drosophila melanogaster
Description: as §1

[15] = tested on: Hsp26 tTa^(A) × tRe MSl-1^Mpu(A, B,); assay: as above; assay type: in vivo, Drosophila melanogaster
Description: as §1

[16] = tested on: Stwl tTa^(A, B, C) × tRe Msl-1^Mpu(A, B); assay: as above; assay type: in vivo, Drosophila melanogaster
Description: as §1

CN(C)[C@@H]1C(O)=C(C(N)=O)C(=O)[C@@]2(O)C(O)=C3C(=O)c4c(O)cccc4[C@@](C)(O)[C@H]3C[C@@H]12 [Tetracycline, tetracycline]
LacZ negative Total ([1]; Tetracycline 0.1 μg/ml in food): 709 | LacZ positive Total ([1]; Tetracycline 0.1 μg/ml in food): 0 | LacZ negative Total ([1]; Tetracycline 1 μg/ml in food): 739 | LacZ positive Total ([1]; Tetracycline 1 μg/ml in food): 0 | LacZ negative Total ([1]; Tetracycline 5 μg/ml in food): 651 | LacZ positive Total ([1]; Tetracycline 5 μg/ml in food): 0 | Female progeny Total ([2]; Tetracycline 0.1 μg/ml in food): 159 | Male progeny Total ([2]; Tetracycline 0.1 μg/ml in food): 159 | Female progeny Total ([2]; Tetracycline 1 μg/ml in food): 135 | Male progeny Total ([2]; Tetracycline 1 μg/ml in food): 122 | Female progeny Total ([2]; Tetracycline 5 μg/ml in food): 124 | Male progeny Total ([2]; Tetracycline 5 μg/ml in food): 120 | Female progeny Total ([3]; Tetracycline 0.1 μg/ml in food): 317 | Male progeny Total ([3]; Tetracycline 0.1 μg/ml in food): 315 | Female progeny Total ([3]; Tetracycline 1 μg/ml in food): 307 | Male progeny Total ([3]; Tetracycline 1 μg/ml in food): 328 | Female progeny Total ([3]; Tetracycline 5 μg/ml in food): 271 | Male progeny Total ([3]; Tetracycline 5 μg/ml in food): 335 | Female progeny Total ([4]; Tetracycline 0.1 μg/ml in food): 412 | Male progeny Total ([4]; Tetracycline 0.1 μg/ml in food): 402 | Female progeny Total ([4]; Tetracycline 1 μg/ml in food): 321 | Male progeny Total ([4]; Tetracycline 1 μg/ml in food): 351 | Female progeny Total ([4]; Tetracycline 5 μg/ml in food): 386 | Male progeny Total ([4]; Tetracycline 5 μg/ml in food): 401 | Female progeny Total ([5]; Tetracycline 0.1 μg/ml in food): 548 | Male progeny Total ([5]; Tetracycline 0.1 μg/ml in food): 637 | Female progeny Total ([5]; Tetracycline 1 μg/ml in food): 590 | Male progeny Total ([5]; Tetracycline 1 μg/ml in food): 549 | Female progeny Total ([5]; Tetracycline 5 μg/ml in food): 615 | Male progeny Total ([5]; Tetracycline 5 μg/ml in food): 522 | Female progeny Total ([6]; Tetracycline 0.1 μg/ml in food): 647 | Male progeny Total ([6]; Tetracycline 0.1 μg/ml in food): 562 | Female progeny Total ([6]; Tetracycline 1 μg/ml in food): 644 | Male progeny Total ([6]; Tetracycline 1 μg/ml in food): 674 | Female progeny Total ([6]; Tetracycline 5 μg/ml in food): 615 | Male progeny Total ([6]; Tetracycline 5 μg/ml in food): 742 | Female progeny Total ([7]; Tetracycline 0.1 μg/ml in food): 436 | Male progeny Total ([7]; Tetracycline 0.1 μg/ml in food): 491 | Female progeny Total ([7]; Tetracycline 1 μg/ml in food): 439 | Male progeny Total ([7]; Tetracycline 1 μg/ml in food): 490 | Female progeny Total ([7]; Tetracycline 5 μg/ml in food): 434 | Male progeny Total ([7]; Tetracycline 5 μg/ml in food): 481 | Female progeny Total ([8]; Tetracycline 0.1 μg/ml in food): 235 | Male progeny Total ([8]; Tetracycline 0.1 μg/ml in food): 210 | Female progeny Total ([8]; Tetracycline 1 μg/ml in food): 199 | Male progeny Total ([8]; Tetracycline 1 μg/ml in food): 274 | Female progeny Total ([8]; Tetracycline 5 μg/ml in food): 156 | Male progeny Total ([8]; Tetracycline 5 μg/ml in food): 154 | Female progeny Total ([9]; Tetracycline 0.1 μg/ml in food): 296 | Male progeny Total ([9]; Tetracycline 0.1 μg/ml in food): 520 | Female progeny Total ([9]; Tetracycline 1 μg/ml in food): 326 | Male progeny Total ([9]; Tetracycline 1 μg/ml in food): 473 | Female progeny Total ([9]; Tetracycline 5 μg/ml in food): 304 | Male progeny Total ([9]; Tetracycline 5 μg/ml in food): 535 | Female progeny Total ([10]; Tetracycline 0.1 μg/ml in food): 361 | Male progeny Total ([10]; Tetracycline 0.1 μg/ml in food): 372 | Female progeny Total ([10]; Tetracycline 1 μg/ml in food): 427 | Male progeny Total ([10]; Tetracycline 1 μg/ml in food): 383 | Female progeny Total ([10]; Tetracycline 5 μg/ml in food): 375 | Male progeny Total ([10]; Tetracycline 5 μg/ml in food): 400 | Female progeny Total ([11]; Tetracycline 0.1 μg/ml in food): 268 | Male progeny Total ([11]; Tetracycline 0.1 μg/ml in food): 248 | Female progeny Total ([11]; Tetracycline 1 μg/ml in food): 324 | Male progeny Total ([11]; Tetracycline 1 μg/ml in food): 362 | Female progeny Total ([11]; Tetracycline 5 μg/ml in food): 349 | Male progeny Total ([11]; Tetracycline 5 μg/ml in food): 386 | Female progeny Total ([12]; Tetracycline 0.1 μg/ml in food): 379 | Male progeny Total ([12]; Tetracycline 0.1 μg/ml in food): 434 | Female progeny Total ([12]; Tetracycline 1 μg/ml in food): 386 | Male progeny Total ([12]; Tetracycline 1 μg/ml in food): 389 | Female progeny Total ([12]; Tetracycline 5 μg/ml in food): 383 | Male progeny Total ([12]; Tetracycline 5 μg/ml in food): 375 | Female progeny Total ([13]; Tetracycline 0.1 μg/ml in food): 336 | Male progeny Total ([13]; Tetracycline 0.1 μg/ml in food): 379 | Female progeny Total ([13]; Tetracycline 1 μg/ml in food): 319 | Male progeny Total ([13]; Tetracycline 1 μg/ml in food): 347 | Female progeny Total ([13]; Tetracycline 5 μg/ml in food): 307 | Male progeny Total ([13]; Tetracycline 5 μg/ml in food): 348 | Female progeny Total ([14]; Tetracycline 0.1 μg/ml in food): 322 | Male progeny Total ([14]; Tetracycline 0.1 μg/ml in food): 352 | Female progeny Total ([14]; Tetracycline 1 μg/ml in food): 342 | Male progeny Total ([14]; Tetracycline 1 μg/ml in food): 376 | Female progeny Total ([14]; Tetracycline 5 μg/ml in food): 316 | Male progeny Total ([14]; Tetracycline 5 μg/ml in food): 354 | Female progeny Total ([15]; Tetracycline 0.1 μg/ml in food): 328 | Male progeny Total ([15]; Tetracycline 0.1 μg/ml in food): 368 | Female progeny Total ([15]; Tetracycline 1 μg/ml in food): 310 | Male progeny Total ([15]; Tetracycline 1 μg/ml in food): 343 | Female progeny Total ([15]; Tetracycline 5 μg/ml in food): 313 | Male progeny Total ([15]; Tetracycline 5 μg/ml in food): 347 | Female progeny Total ([16]; Tetracycline 0.1 μg/ml in food): 211 | Male progeny Total ([16]; Tetracycline 0.1 μg/ml in food): 336 | Female progeny Total ([16]; Tetracycline 1 μg/ml in food): 236 | Male progeny Total ([16]; Tetracycline 1 μg/ml in food): 257 | Female progeny Total ([16]; Tetracycline 5 μg/ml in food): 223 | Male progeny Total ([16]; Tetracycline 5 μg/ml in food): 291
